The values below come from publication PMC10229426, “An optimized bioluminescent substrate for non-invasive imaging in the brain” (Nature Chemical Biology, 2023).

Where “and” joins values, the source holds several entries; their conditions need not be identical. Equal entries are not always repeated. Entries after “also recorded” stand apart in the source; their conditions may differ.

The subject of data set [1] is AkaLuc. The experiment in a line: Bioluminescence imaging of transgenic mice expressing AkaLuc in the brain. In kind it is in vivo, mouse. To be noted: 3.0- or 1.3-µmol doses. An excerpt:
(§1) Transgenic reporter mice with LSL-CAG-luciferase (Antares, FLuc or AkaLuc) inserted at the H11 locus (H11P) were generated by φC31-mediated recombination in blastocysts[48] by the Stanford Transgenic, Knockout and Tumor Model Center. For substrate comparisons, 2- to 4-month-old transgenic mice doubly hemizygous for a Camk2a-cre (Jackson Laboratory, 005359), Vgat-IRES-cre (Jackson Laboratory), Vglut2-IRES-cre (Jackson Laboratory, 016963) or Alb-cre (Jackson Laboratory, 003574) driver and a CAG-LSL-Antares, CAG-LSL-AkaLuc or CAG-LSL-FLuc reporter were anesthetized by inhalation of isoflurane for 5 min. An electric shaver was used to remove scalp hair in Camk2a-cre, Vglut2-IRES-cre or Vgat-IRES-cre mice or abdominal hair in Alb-cre mice. Nair depilatory cream (Church and Dwight) was then applied to the shaved area for 1 min, and remaining hair was removed with a piece of sterile gauze. […]
(§2) For mice expressing Antares, indicated amounts of Fz were dissolved in 480 µl of a PEG-300-based formulation consisting of 10% glycerol, 10% ethanol, 10% hydroxypropylcyclodextrin and 35% PEG-300 in water, or indicated amounts of lyophilized Fz analogs with P-407 vehicle were reconstituted in 150–500 µl of DPBS buffer. […] Integrated luminescence was quantified using the Fiji version of the ImageJ program (NIH)[49], with further statistical analysis performed in GraphPad Prism (version 9.0.0).

For data set [2] the following is noted: probably due to acidity of the solution; cited from earlier work.
Data set [3] deals with T1, Antares luciferase (Oplophorus gracilirostris, UniProt Q9GV45, A31E/A60N/A81I/F95D/I117V/K70R/L54V/L99Q/M102K/N193R/P142E/Q151K/Q38R/Q45L/V71I/Y165I).
T1 construct: expressed in transfected cells; host or cells: transgenic mice with CAG-LSL-Antares at the H11 locus, crossed to Cre driver lines (neurons or liver)
T1 sequence (Q9GV45 other isoform, or with tags, fused parts or gaps with the stated changes): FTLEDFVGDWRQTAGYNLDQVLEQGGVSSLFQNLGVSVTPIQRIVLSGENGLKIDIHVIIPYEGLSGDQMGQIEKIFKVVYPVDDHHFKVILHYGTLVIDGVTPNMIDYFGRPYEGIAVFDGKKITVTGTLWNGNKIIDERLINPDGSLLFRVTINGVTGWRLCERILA
The experiment in a line: Non-invasive detection of Antares in the liver (Alb-cre driver). The class given is in vivo, mouse. Conditions: 1.3 µmol i.p.
Text: as §1, §2

Data set [4] has as its target T1, Antares luciferase. Kind of data set: Bioluminescence imaging of transgenic mice for substrate comparison (brain, Cre-driven Antares). In kind it is in vivo, mouse. An excerpt: Transgenic reporter mice with LSL-CAG-luciferase (Antares, FLuc or AkaLuc) inserted at the H11 locus (H11P) were generated by φC31-mediated recombination in blastocysts[48] by the Stanford Transgenic, Knockout and Tumor Model Center. For substrate comparisons, 2- to 4-month-old transgenic mice doubly hemizygous for a Camk2a-cre (Jackson Laboratory, 005359), Vgat-IRES-cre (Jackson Laboratory), Vglut2-IRES-cre (Jackson Laboratory, 016963) or Alb-cre (Jackson Laboratory, 003574) driver and a CAG-LSL-Antares, CAG-LSL-AkaLuc or CAG-LSL-FLuc reporter were anesthetized by inhalation of isoflurane for 5 min. An electric shaver was used to remove scalp hair in Camk2a-cre, Vglut2-IRES-cre or Vgat-IRES-cre mice or abdominal hair in Alb-cre mice. Nair depilatory cream (Church and Dwight) was then applied to the shaved area for 1 min, and remaining hair was removed with a piece of sterile gauze. The area was then rinsed with DPBS and cleaned with 70% ethanol with a piece of sterile gauze.
For mice expressing Antares, indicated amounts of Fz were dissolved in 480 µl of a PEG-300-based formulation consisting of 10% glycerol, 10% ethanol, 10% hydroxypropylcyclodextrin and 35% PEG-300 in water, or indicated amounts of lyophilized Fz analogs with P-407 vehicle were reconstituted in 150–500 µl of DPBS buffer. For mice expressing FLuc, indicated amounts of D-luciferin were dissolved in PBS. For mice expressing AkaLuc, 3 μmol (1.0 mg) of AkaLumine-HCl (Sigma-Aldrich) was dissolved in 150 μl of 0.9% NaCl. Substrates were then injected into the peritoneal cavity in the left lower quadrant, with the maximum injectable volume at 480 µl. Immediately after substrate injection, bioluminescent images were acquired in an Ami HT bioluminescence imaging system running Aura software version 3.1 or 4.0 (Spectral Instruments Imaging) for 15–30 min at intervals of 1 min. For comparing substrates at 1.3 µmol, the following imager settings were used: emission filter open, field of view of 25 cm, f-stop of 1.2, binning of 2 × 2 and exposure time of 2 s. For comparison with >1.3-µmol substrates, the following settings were used: emission filter open, field of view of 25 cm, f-stop of 1.2, binning of 1 × 1 and exposure time of 1 s. Pseudocolor images and intensity scale bars were generated with Aura software. Integrated luminescence was quantified using the Fiji version of the ImageJ program (NIH)[49], with further statistical analysis performed in GraphPad Prism (version 9.0.0).

Data set [5] can be described thus: Solubility in aqueous formulation with poloxamer-407 (P-407). In kind it is physicochemical. As for the experimental part:
Stock samples of solid formulated Fz analogs were prepared using the following protocol. First, P-407 (Pluronic F127) was placed into a screw-cap glass vial. The polymer was then heated to 75 °C in a water bath until melted. Fz analogs dissolved in ethanol were added to the hot polymer, mixing well with a thin spatula. Additional rinses of Fz analogs in ethanol were added to the hot polymer for quantitative transfer. The solvent was then removed under vacuum. This concentrated sample was diluted with water to make a dispensing mixture of 4–9 mM Fz analogs in water. Next, this aqueous stock was aliquoted into glass vials, frozen and lyophilized overnight to give a yellow cake. For i.p. injection into mice, DPBS (Corning, 21-031-CV) was added to the vial and rocked to create a clear solution.

Data set [6] in a line: Toxicity in mice: necropsy and histopathology. In kind it is in vivo, C57BL/6 mice. Also noted: key: 0: absent; 1: minimal; 2: mild; 3: moderate; 4: severe. Conditions: 1 day, 4.2 µmol, 20 mg P-407; individual mice. As to the method:
(§3) Male C57BL/6 mice of 2 months of age were killed by CO2 asphyxiation and cardiac exsanguination. All mice were weighed, and a complete gross examination of the external and internal organs was performed. […] Formalin-fixed tissues were processed routinely, embedded in paraffin, sectioned at 5 μm and stained with hematoxylin and eosin. All slides were blindly evaluated for histologic treatment-related effects (Supplementary Table 1) by a board-certified veterinary pathologist.

A short description of data set [7]: Toxicity in mice: necropsy and histopathology. In kind it is in vivo, C57BL/6 mice. On the set-up: key to BMH, brain multifocal hemorrhage score / HN, hepatocellular necrosis score / RTD, renal tubular dilation score / RTDR, renal tubular degeneration and regeneration score: 0: absent; 1: minimal; 2: mild; 3: moderate; 4: severe; key to HMNH, heart myocardial necrosis and hemorrhage score: 0: no lesions; 1: <5% of myocardium affected; 2: 5-10% affected; 3: 10-25% affected; 4: >25% affected; key to LC, Liver capsule score: 0: normal; 1: segmental subcapsular necrosis +/- neutrophilic infiltrate; Total organ score: scale not given here. As to the method: as §3

[8] abbreviates: i.p., CAG-LSL-Antares x Vgat-IRES-cre mice.
The mark [9] stands for this setting: 1 day, 4.2 µmol, 20 mg P-407, individual mice.

As to `CN(C)c1ccc(/C=C/C=C/C2=N[C@@H](C(=O)O)CS2)cc1` [AkaLumine], in data set [1], the “duration of brain signal relative to Antares–CFz” value is “more sustained signal”. Further, in data set [2], the “toxicity of administered solution” value is “noticeable toxicity of the Akalumine solution to the skin and heart”.
On to `Nc1cccc(-c2cn3c(=O)c(Cc4ccco4)nc-3c(Cc3ccccc3F)[nH]2)c1F` [FFz, fluorofurimazine, reference compound], for which the “liver signal, 6 versus FFz” value in data set [3] is reported as “brighter in the liver”. For the same compound, the brain signal distribution result in data set [4] (Antares driven by Camk2a-cre) was “signal predominantly from the hindbrain”; in data set [4] (setting [8]), “low brightness from the forebrain, higher signal from the hindbrain, and highest signal from regions in the head outside the brain”.
Turning to `O=c1c(Cc2ccco2)nc2c(Cc3ccccc3)[nH]c(-c3cccc(O)c3)cn1-2` [HFz, hydrofurimazine, reference compound], in data set [4] (setting [8]), the “brain signal brightness relative to Fz” value was “more than tenfold dimmer” and the brain signal distribution result was “signal from the brain similar to Fz”.
On to `Cc1ccc(Cc2nc3c(Cc4ccccc4)[nH]c(-c4cccc(F)c4F)cn-3c2=O)o1` [compound 10], for which the “relative solubility in aqueous formulation with P-407” value in data set [5] is on record as “reduced solubility”. In data set [5] (4.2 µmol), the “solubilization of 4.2 µmol in P-407 formulation” value is “incomplete solubilization”.
On to `Cc1ccc(Cc2nc3c(Cc4ccccc4F)[nH]c(-c4cccc(F)c4F)cn-3c2=O)o1` [compound 13], for which, in data set [6], the “HPMC, heart perivascular myxomatous change score” value worked out at 0; the “HT, heart telangiectasia score” value was 0; the “KCHMV, Kupffer cell hyperplasia and microvesicular vacuolation score” value was 0. Also, the “toxicity after a single i.p. injection” value in data set [7] (4.2 µmol with 20 mg P-407, one injection) was “severe kidney pathology and weight loss; also recorded: more toxic than 6”. In data set [7] (setting [9]), the “BMH, brain multifocal hemorrhage score” value is on record as 0; the “HMNH, heart myocardial necrosis and hemorrhage score” value came to 0; the “HN, hepatocellular necrosis score” value is 0; the “LC, Liver capsule score” value is reported as 0. Also, in data set [7] (setting [9]), the “RTD, renal tubular dilation score” value is 2 (5%–25% of tubules affected) (2×) and 3 (25%–50% of tubules affected); the “RTDR, renal tubular degeneration and regeneration score” value is 3 (25%–50% of tubules affected) (2×) and 2 (5%–25% of tubules affected); the “SRPHMV, splenic red pulp histiocytosis with microvesicular vacuolation score” value is listed as 0; the Total organ score was 5 and 4 and 6. For the same compound, the “∆ weight” value in data set [7] (setting [9]) is listed as “–7.9%; also recorded: –7.2%; also recorded: –6.7%”. Moreover, the “brain brightness relative to 6” value in data set [4] (1.3 µmol i.p. with 10 mg P-407) is “brighter”. Also, the “brain brightness relative to 6 (factor)” value in data set [4] (1.3 µmol i.p. with 10 mg P-407, Vglut2-IRES-cre or CaMKIIα-cre) is recorded as 1.5–2.0.
